Reference: US5760276A, “Aryl-and heteroarylcyclohexenyl substituted alkenes having retinoid agonist, antagonist or inverse agonist type biological activity” (Allergan, priority 1997, dated 1998)
pIC50, pKd: −log10 of the molar value.

Key:
[1] = tested on: RARγ -VP-16; assay: Retinoid inverse agonist assay: inhibition of basal luciferase activity of RARγ-VP-16 chimeric receptor in cotransfected CV-1 cells; type: cell-based; conditions: CV-1 cells cotransfected with RARγ -VP-16, ER-RXRα chimeric receptor and ERE-tk-Luc reporter
From the text: Inverse agonists are ligands that are capable of inhibiting the basal receptor activity of unliganded receptors. […] Moreover, the biological effects associated with retinoid inverse agonists are distinct from those of retinoid agonists or antagonists. For example, RAR inverse agonists, but not RAR neutral antagonists, cause a dose-dependent inhibition of the protein MRP-8 in cultured human keratinocytes differentiated with serum. MRP-8 is a specific marker of cell differentiation, which is also highly expressed in psoriatic epidermis, but is not detectable in normal human skin. Thus, retinoid inverse agonists may offer a unique way of treating diseases such as psoriasis.
The activity of retinoid inverse agonists can be tested by the procedure of Klein et al. J. Biol. Chem. 271, 22692-22696 (1996) which is expressly incorporated herein by reference.
In this assay, retinoid inverse agonists are able to repress the basal activity of a […] -VP-16 chimeric receptor where the constituitively active domain of the herpes simplex virus (HSV) VP-16 is fused to the N-terminus of RARγ. […] Retinoid inverse agonists are able to inhibit the basal luciferase activity in these cells in a dose dependent manner and IC50 s measured.

[2] = target: T1, RARα (Homo sapiens, UniProt P10276); assay: Ligand binding assay, RARα
T1 sequence (P10276 1-462): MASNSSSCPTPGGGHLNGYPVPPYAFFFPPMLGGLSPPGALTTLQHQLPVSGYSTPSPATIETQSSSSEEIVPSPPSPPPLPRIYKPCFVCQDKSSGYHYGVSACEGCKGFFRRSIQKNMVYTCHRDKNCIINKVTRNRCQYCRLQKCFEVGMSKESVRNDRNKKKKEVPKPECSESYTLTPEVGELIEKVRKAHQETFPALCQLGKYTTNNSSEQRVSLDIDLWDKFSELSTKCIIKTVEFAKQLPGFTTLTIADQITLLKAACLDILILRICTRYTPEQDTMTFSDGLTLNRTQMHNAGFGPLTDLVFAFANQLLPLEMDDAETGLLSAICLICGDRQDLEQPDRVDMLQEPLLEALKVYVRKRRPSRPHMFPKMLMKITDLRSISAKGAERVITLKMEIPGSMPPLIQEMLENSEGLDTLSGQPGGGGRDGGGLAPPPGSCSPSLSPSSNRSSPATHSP
From the text: (§1) Other assays described below, measure the ability of the compounds of the present invention to bind to, and/or activate various retinoid receptor subtypes. When in these assays a compound binds to a given receptor subtype and activates the transcription of a reporter gene through that subtype, then the compound is considered an agonist of that receptor subtype. […] In the below described assays the ability of the compounds to bind to RARα, RARβ, RARγ, RXRα, RXRβ and RXRγ receptors, and the ability or inability of the compounds to activate transcription of a reporter gene through these receptor subtypes can be tested.
(§2) A holoreceptor transactivation assay and a ligand binding assay which measure the antagonist/agonist like activity of the compounds of the invention, or their ability to bind to the several retinoid receptor subtypes, respectively, are described in published PCT Application No. WO WO93/11755 (particularly on pages 30-33 and 37-41) published on Jun. 24, 1993, the specification of which is also incorporated herein by reference. A description of the holoreceptor transactivation assay is also provided below.
(§3) CV1 cells (5,000 cells/well) were transfected with an RAR reporter plasmid MTV-TREp-LUC (50 ng) along with one of the RAR expression vectors (10 ng) in an automated 96-well format by the calcium phosphate procedure of Heyman et al. Cell 68, 397-406, (1992). For RXRα and RXRγ transactivation assays, an RXR-responsive reporter plasmid CRBPII-tk-LUC (50 ng) along with the appropriate RXR expression vectors (10 ng) was used substantially as described by Heyman et al. above, and Allegretto et al. J. Biol. Chem. 268, 26625-26633. For RXRβ transactivation assays, an RXR-responsive reporter plasmid CPRE-tk-LUC ([…]) along with RXRβ expression vector ([…]) was used as described in above. These reporters contain DRI elements from human CRBPII and certain DRI elements from promoter, respectively. (see Mangelsdorf et al. The Retinoids: Biology, Chemistry and Medicine, pp 319-349, Raven Press Ltd., New York and Heyman et al., cited above) (1, 8). A β-galactosidase (50 ng) expression vector was used as an internal control in the transfections to normalize for variations in transfection efficiency. The cells were transfected in triplicate for 6 hours, followed by incubation with retinoids for 36 hours, and the extracts were assayed for luciferase and β-galactosidase activities. The detailed experimental procedure for holoreceptor transactivations has been described in Heyman et al. and Allegretto et al., cited above. The results obtained in this assay are expressed in EC50 numbers, as they are also in the chimeric receptor transactivation assay. The Heyman et al. Cell 68, 397-406, Allegretto et al. J. Biol. Chem. 268, 26625-26633, and Mangelsdorf et al. The Retinoids: Biology, Chemistry and Medicine, pp 319-349, Raven Press Ltd., New York, are expressly incorporated herein by reference. The results of ligand binding assay are expressed in Kd numbers. (See Cheng et al. Biochemical Pharmacology Vol. 22 pp 3099-3108, expressly incorporated herein by reference.)

[3] = target: T2, RARβ (Homo sapiens, UniProt P10826); assay: Ligand binding assay, RARβ
T2 sequence (P10826 1-455): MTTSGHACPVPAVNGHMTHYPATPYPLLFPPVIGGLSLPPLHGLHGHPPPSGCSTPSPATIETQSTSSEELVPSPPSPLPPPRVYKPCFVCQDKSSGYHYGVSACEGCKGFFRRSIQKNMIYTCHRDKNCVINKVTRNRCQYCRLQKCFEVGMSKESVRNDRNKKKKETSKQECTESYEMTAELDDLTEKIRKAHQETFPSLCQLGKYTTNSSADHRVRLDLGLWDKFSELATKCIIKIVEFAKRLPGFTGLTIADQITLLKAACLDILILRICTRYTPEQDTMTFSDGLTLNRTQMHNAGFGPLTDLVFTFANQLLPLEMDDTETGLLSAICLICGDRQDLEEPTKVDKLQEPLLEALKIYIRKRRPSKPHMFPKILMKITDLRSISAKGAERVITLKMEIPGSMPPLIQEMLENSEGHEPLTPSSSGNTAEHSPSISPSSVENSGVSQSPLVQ
From the text: as §1, §2, §3

[4] = target: T3, RARγ (Homo sapiens, UniProt P13631); assay: Ligand binding assay, RARγ
T3 sequence (P13631 1-454): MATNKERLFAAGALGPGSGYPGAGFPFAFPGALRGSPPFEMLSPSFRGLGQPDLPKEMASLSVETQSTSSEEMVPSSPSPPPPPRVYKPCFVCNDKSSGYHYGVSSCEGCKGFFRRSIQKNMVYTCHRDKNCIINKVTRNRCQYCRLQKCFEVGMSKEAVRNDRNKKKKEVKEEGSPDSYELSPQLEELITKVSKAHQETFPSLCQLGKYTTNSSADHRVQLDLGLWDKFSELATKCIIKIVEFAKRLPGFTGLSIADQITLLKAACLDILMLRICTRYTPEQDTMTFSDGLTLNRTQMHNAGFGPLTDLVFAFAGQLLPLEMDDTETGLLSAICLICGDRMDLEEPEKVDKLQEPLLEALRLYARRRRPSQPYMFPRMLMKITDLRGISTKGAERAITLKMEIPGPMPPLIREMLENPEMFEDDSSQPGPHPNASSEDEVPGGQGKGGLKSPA
From the text: Other assays described below, measure the ability of the compounds of the present invention to bind to, and/or activate various retinoid receptor subtypes. When in these assays a compound binds to a given receptor subtype and activates the transcription of a reporter gene through that subtype, then the compound is considered an agonist of that receptor subtype. […] In the below described assays the ability of the compounds to bind to RARα, RARβ, RARγ, RXRα, RXRβ and […]. receptors, and the ability or inability of the compounds to activate transcription of a reporter gene through these receptor subtypes can be tested. A holoreceptor transactivation assay and a ligand binding assay which measure the antagonist/agonist like activity of the compounds of the invention, or their ability to bind to the several retinoid receptor subtypes, respectively, are described in published PCT Application No. […] A description of the holoreceptor transactivation assay is also provided below. […] Cell 68, 397-406, (1992). For RXRα and RXRγ transactivation assays, an RXR-responsive reporter plasmid CRBPII-tk-LUC (50 ng) along with the appropriate RXR expression vectors (10 ng) was used substantially as described by Heyman et al. above, and Allegretto et al. J. Biol. Chem. 268, 26625-26633. […] These reporters contain DRI elements from human CRBPII and certain DRI elements from promoter, respectively. (see Mangelsdorf et al. The Retinoids: Biology, Chemistry and Medicine, pp 319-349, Raven Press Ltd., New York and Heyman et al., cited above) (1, 8). A β-galactosidase (50 ng) expression vector was used as an internal control in the transfections to normalize for variations in transfection efficiency. The cells were transfected in triplicate for 6 hours, followed by incubation with retinoids for 36 hours, and the extracts were assayed for luciferase and β-galactosidase activities. The detailed experimental procedure for holoreceptor transactivations has been described in Heyman et al. and Allegretto et al., cited above. The results obtained in this assay are expressed in EC50 numbers, as they are also in the chimeric receptor transactivation assay. The Heyman et al. Cell 68, 397-406, Allegretto et al. J. Biol. Chem. 268, 26625-26633, and Mangelsdorf et al. The Retinoids: Biology, Chemistry and Medicine, pp 319-349, Raven Press Ltd., New York, are expressly incorporated herein by reference. The results of ligand binding assay are expressed in Kd numbers.

| Compound | pIC50 [1] | pKd [2] | pKd [3] | pKd [4] |
| --- | --- | --- | --- | --- |
| CCOC(=O)c1ccc(C#C/C=C/C2C(c3ccc(C)cc3)=CCCC2(C)C)cc1 (racemic) [Compound 10, Ethyl (±)-(E)-4-(4-(2-(4-Methylphenyl)-4,4-dimethylcyclohexen-3-yl)but-3-en-1-yn-1-yl)benzoate] | 9.00 | – | – | – |
| Cc1ccc(C2=CCCC(C)(C)C2/C=C/C#Cc2ccc(C(=O)O)cc2)cc1 (racemic) [Compound 14, (±)-(E)-4-(4-(2-(4-Methylphenyl)-4,4-dimethylcyclohexen-3-yl)but-3-en-1-yn-1-yl)benzoic acid] | – | 6.34 | 7.62 | 7.01 |
| Cc1ccc(C2=C(/C=C/C#Cc3ccc(C(=O)O)cc3)C(C)(C)CCC2)cc1 [Compound 13, (E)-4-(4-(1-(4-Methylphenyl)-3,3-dimethylcyclohexen-2-yl)but-3-en-1-yn-1-yl)benzoic Acid] | – | 6.83 | 8.22 | 7.68 |
| CC1(C)CCCC(c2ccc(C(C)(C)C)cc2)=C1/C=C/C#Cc1ccc(C(=O)O)cc1 [Compound 16, (E)-4-(4-(1-(4-tert-butylphenyl)-3,3-dimethylcyclohexen-2-yl)but-3-en-1-yn-1-yl)benzoic acid] | – | 6.06 | 7.89 | 6.48 |

More lines, in order of rising pKd [2], values ahead:

| pIC50 [1] | pKd [2] | pKd [3] | pKd [4] | Compound |
| --- | --- | --- | --- | --- |
| – | 6.87 | 8.40 | 7.44 | CCc1ccc(C2=C(/C=C/C#Cc3ccc(C(=O)O)cc3)C(C)(C)CCC2)cc1 [Compound 15, (E)-4-(4-(1-(4-Ethylphenyl)-3,3-dimethylcyclohexen-2-2l)but-3-en-1-yn-1-yl)benzoic acid] |
| – | 6.87 | 7.32 | 7.48 | Cc1ccc(C2=CCC(C)(C)C=C2/C=C/C#Cc2ccc(C(=O)O)cc2)cc1 [Compound 24, (E)-4-(4-(2-(4-Methylphenyl)-5,5-dimethyl-1,3-cyclohexadien-3-yl)but-3-ene-1-yn-1-yl)benzoic Acid] |
